A short description of data set [1]: Stability test 1 (storage test), effective oxygen retention rate. The note with it: uncoated solid bleaching agent (before coating).
Procedure: Even in the case of the oxygen solid bleaching agent, an effective oxygen content (in terms of O2) in the solid bleaching agent-containing material can be calculated by using an iodine titration method. That is, iodine which is liberated by the reaction of active oxygen and potassium iodide is titrated with a sodium thiosulfate solution, and the effective oxygen content is calculated by Expression 4. In order to accelerate the reaction between active oxygen and potassium iodide, a small amount of ammonium molybdate aqueous solution adjusted to 1% by mass may be added. […] Effective oxygen content (%)=a×f×0.08000/b (Expression 4)
(§1) A stability of the solid bleaching agent-containing material having a coating layer thus obtained can be evaluated on the basis of how much an effective chlorine retention rate or effective oxygen retention rate after a storage test under certain conditions is improved before and after coating. The effective chlorine retention rate (%) is defined by the following Expression 9. […] Similarly, in the case where the solid bleaching agent is an oxygen bleaching agent, the stability of the solid bleaching agent is defined by the effective oxygen retention rate (%). […] Effective chlorine or effective oxygen retention rate (%)=R1×100/R2 (Expression 9)
(§2) At this time, room temperature was 20° C. and relative humidity was 40%.
Data set [2] can be described thus: Stability test 2 (long-term storage test). It is filed as physicochemical. The note with it: in pasty detergent composition. Here is the method: In a stainless steel beaker were charged 5 g of distilled water and 3 g of potassium carbonate, and the potassium carbonate was dissolved. […] . The pasty detergent composition heated to 60° C. was accurately weighed within a range of from 2.5 to 3.5 g, a mass thereof was recorded up to 3 decimal places, and added so as to be superimposed on the solid bleaching agent-containing material or sodium dichloroisocyanurate, to thereby prepare detergent compositions containing the solid bleaching agent-containing material or the solid bleaching agent. […] One month later, the entire amount of the detergent composition containing the solid bleaching agent-containing material or the solid bleaching agent in the cup was dissolved in about 100 ml of distilled water, and the effective chlorine retention rate was evaluated from the effective chlorine content in the same manner as in the case of the stability test 1.
. […] The case where the effective chlorine retention rate was less than 5% was evaluated as failed which is denoted by B, because an effect of improving stability was hardly recognized. The case where the effective chlorine retention rate was 5% or more was evaluated as pass which is denoted by A, because an effect of improving stability was recognized. […]

The nature of data set [3]: Stability test 3 (abrasion test). Type of data set: physicochemical. Particulars: uncoated; storage 40° C., 75% RH, 3 months. On the procedure:
In order to evaluate a stability in the case where a physical impact was applied to the solid bleaching agent-containing materials having a coating layer prepared in Examples 1, 25, 28, 31, 35, 36, 37, 38, and 39, an abrasion test was carried out by using a tablet abrasion tester (manufactured by Toyama Sangyo Co., Ltd.). This tablet abrasion tester is composed of a plastic drum container having an inner diameter of about 286 mm and a depth of about 38 mm, and an electric part rotating the drum container in a vertical direction. Inside the drum container, a partition plate is provided so that a test sample in the container is lifted up to about 157 mm in height and falls each time when the drum container makes one rotation. Such a tablet abrasion tester is readily available. […]
The case where the effective chlorine retention rate was less than 5% was evaluated as failed which is denoted by B because an effect of improving stability was hardly recognized. The case where the effective chlorine retention rate was 5% or more and less than 10% was evaluated as pass which is denoted by A, because an effect of improving stability was recognized. The case where the effective chlorine retention rate was 10% or more was evaluated as particularly excellent among passes, which is denoted by S. The results were as shown in Table 27.

The nature of data set [4]: Stability test 1 (storage test), effective chlorine retention rate.
Procedure: In the case where the solid bleaching agent is a chlorine bleaching agent, an effective chlorine content (in terms of Cl2) in the solid bleaching agent-containing material can be calculated by Expression 3 by using an iodine titration method. That is, iodine which is liberated by the reaction of active chlorine and potassium iodide is titrated with sodium thiosulfate solution, and the effective chlorine content is calculated by the following Expression 3.
as §1
Distilled water was added thereto to be about 100 ml, and about 1 g potassium iodide and about 5 ml of a 50% by mass acetic acid aqueous solution were further added and stirred for about 5 minutes. The liberated iodine was titrated with a 0.1 N sodium thiosulfate aqueous solution. After a yellow color of the solution became thin, approximately 1 ml of an aqueous solution of starch (10 g/L) was added as an indicator and the titration was continued until a blue color of the generated iodine-starch disappeared. The effective chlorine content (%) was determined from the titration amount of the sodium thiosulfate aqueous solution.
as §2
The conditions of data set [5]: per 100 g of water; cited from earlier work.
[6] abbreviates: uncoated solid bleaching agent (before coating).

`O=C([O-])[O-].O=C([O-])[O-].OO.OO.OO.[Na+].[Na+].[Na+].[Na+]` [Sodium percarbonate]: the “Stability test 1: before coating, effective oxygen retention rate (%)” value in data set [1] is listed as 25%.
As to `O=c1nc([O-])n(Cl)c(=O)n1Cl.[Na+]` [Sodium dichloroisocyanurate], in data set [2] (1 month, 40° C., 75% RH), the “Stability test 2: effective chlorine retention rate” value is on record as 0%. The “Stability test 2: before coating, effective chlorine retention rate (%)” value in data set [2] (uncoated, after 1 month) was determined as 0%. Further, the “Stability test 3: before coating, effective chlorine retention rate (%)” value in data set [3] is 0%. For the same compound, the “Stability test 1: before coating, effective chlorine retention rate (%)” value in data set [4] (setting [6]) stood at 12%; in data set [4] (unprocessed solid bleaching agent mixed with detergent components and 3 ml tap water at 60° C., 18 hours at room temperature), 12%.
As for `O=c1n(Cl)c(=O)n(Cl)c(=O)n1Cl` [trichloroisocyanuric acid, Trichloroisocyanuric acid], in data set [5], the “solubility with respect to water of 100 g” value is 1.2 g. Besides, in data set [4] (setting [6]), the “Stability test 1: before coating, effective chlorine retention rate (%)” value is given as 30%.

Values taken from patent US11078450B2, “Material containing solid bleaching agent, and detergent composition” (SHIKOKU CHEMICALS CORPORATION, priority 2016, dated 2021).
